Species: Mus musculus
Assay: Hydroxyl radical scavenging activity by chemiluminescence technique in mouse thymus cells
Format: functional
Settings: not given

| Compound | IC50 [uM l-1] |
| --- | --- |
| O=C([O-])CCNC12c3c4c5c6c7c8c(c9c%10c1c1c3c3c%11c4c4c5c5c7c7c%12c8c8c9c9c%10c%10c1c1c3c3c%11c%11c4c4c5c7c5c7c%12c8c8c9c9c%10c1c1c3c3c%11c4c5c4c7c8c9c1c34)C62.[Na+] (stereo unspecified) | 147.2 |
| O=C(O)c1ccccc1 [BENZOIC ACID] | 16600 |
| OC[C@@H](O)[C@@H](O)[C@H](O)[C@H](O)CO [MANNITOL] | 13800 |
| NC(N)=S [THIOUREA] | 1200 |

Same assay, conditions: Mus musculus; read-out: IC50

| Compound | IC50 [µM] |
| --- | --- |
| CN(CCC(=O)O)C12C3=c4c5c6c7c8c9c%10c%11c%12c%13c%14c%15c%16c%17c%18c%19c%20c(c4c4c5c8c(c%139)c(c%14%18)c%194)C4(NCCC(=O)O)C5=c8c9c(c-%16c%13c%14c%16c(c-%11c%11c%18c(c%19c1c(c8c(c9%14)c%19c%18%16)C34)=C(C62)C7(NCCC(=O)O)C%11%10)C%13C%12%15NCCC(=O)O)C%17C5%20NCCC(=O)O (stereo unspecified) | 76.3 |
| CN(CCC(=O)O)C12C3=C4c5c6c7c8c9c%10c%11c%12c%13c%14c%15c%16c%17c%18c(c5c8c(c%15%18)c%139)C4(NCCC(=O)O)C4C=%17C5(NCCC(=O)O)C(=C8c9c1c1c%13c%15c%17c%18c%19c%20c%21c(c8c%19c9%15)C5C=%16C%21(NCCC(=O)O)C%14C%12(NCCC(=O)O)C%20C%18(NCCC(=O)O)C%11C5(NCCC(=O)O)C%17C%13=C(C6(NCCC(=O)O)C31)C7(NCCC(=O)O)C%105)C42 (stereo unspecified) | 96.2 |
